The target in one assay is T1, Human IL-17A (Homo sapiens, UniProt Q16552).
T1 sequence (Q16552 20-155 limits assumed): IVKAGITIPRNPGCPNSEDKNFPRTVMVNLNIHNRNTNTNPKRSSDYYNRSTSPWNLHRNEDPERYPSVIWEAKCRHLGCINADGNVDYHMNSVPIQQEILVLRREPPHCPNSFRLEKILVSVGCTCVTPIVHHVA
Nature of the assay: Inhibition of human IL-17A protein-induced GROα/CXCL1 production in HT-29 cells. It counts as cell-based. Details: purchased R&D 317-ILB; host or cells: added exogenously to HT-29 cells. The following applies: 30 ng/mL human IL-17A protein, 48 h, GROα in supernatant by ELISA kit, read-out: Inhibitory IC50 of compounds on HT-29 cell GROα/CXCL1. In outline: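 Compound dilutions were preincubated 1 h at 37 °C with 30 ng/mL human IL-17A, then added to HT-29 cells (5×10^4/well) for 48 h at 37 °C. GROα in supernatant quantified by ELISA; IC50 for inhibition of its production. Positive control: IL-17A antibody at […].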
A general note: An ELISA detects its analyte on a solid surface through an enzyme-linked reagent.

For a further assay, the target named is T2, Human IL-17AF (Homo sapiens, UniProt Q16552+Q96PD4).
T2 construct: purchased Sino Biological Inc. CT047-H08H
T2 sequence (Q16552 24-155): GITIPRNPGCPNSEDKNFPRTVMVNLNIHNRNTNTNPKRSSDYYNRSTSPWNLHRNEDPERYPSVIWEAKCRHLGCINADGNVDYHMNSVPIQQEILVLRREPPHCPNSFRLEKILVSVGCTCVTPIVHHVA
T2 sequence (Q96PD4 31-163): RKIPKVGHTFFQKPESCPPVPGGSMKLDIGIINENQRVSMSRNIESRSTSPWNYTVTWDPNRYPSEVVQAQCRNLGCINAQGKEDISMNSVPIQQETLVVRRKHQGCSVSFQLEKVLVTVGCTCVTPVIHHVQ
Nature of the assay: IL-17AF ELISA (competitive ELISA, IL-17AF/IL-17Ra receptor-ligand binding). As to conditions: human IL-17AF coated plate, human IL-17Ra, read-out: IC50, inhibitory activity of compounds on human IL-17AF. In outline: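 Inhibitors were first pre-incubated 10 min at 25 °C with plate-bound IL-17AF (coated at 0.625 μg/ml, PBS pH 7.4) before a 30-min exposure to IL-17Ra added from a 100 nM solution. Receptor capture read via anti-Fc HRP, TMB, A450. Residual activity normalized to blank/DMSO wells; IC50 by log(inhibitor)-normalized response, variable slope.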

As for `Cc1[nH]nc2c1-c1cnc(NC(=O)[C@@H](NC(=O)c3ccnn3C(C)C)C(C3CC3)C3CC3)cc1CN(C1CC1)CC2` [compound 198], the IC50 is at most 100 nM at Human IL-17A and 100 to 500 nM at Human IL-17AF.
For `Cc1[nH]nc2c1-c1cc(F)c(NC(=O)[C@@H](NC(=O)c3ccnn3C(C)C)C(C3CC3)C3CC3)cc1CN(C1CC(F)(F)C1)CC2` [compound 176], the IC50 on Human IL-17A and at Human IL-17AF was at most 100 nM in each case.
With `Cc1[nH]nc2c1-c1ccc(NC(=O)[C@@H](NC(=O)c3ccnn3C)C(C3CC3)C3CC3)cc1COCC2` [compound 2], the IC50 on Human IL-17A is 100 to 500 nM; on Human IL-17AF, at most 100 nM.
Turning to `COCCCn1nccc1C(=O)N[C@H](C(=O)Nc1cc2c(cc1F)-c1c(n[nH]c1C)CCOC2)C(C1CC1)C1CC1` [compound 58], the IC50 was 100 to 500 nM on Human IL-17A and at most 100 nM on Human IL-17AF.
Turning to `Cc1[nH]nc2c1-c1cnc(NC(=O)[C@@H](NC(=O)c3ccnn3CC(F)(F)F)C(C3CC3)C3CC3)cc1COCC2` [compound 236], the IC50 at Human IL-17A and at Human IL-17AF was 100 to 500 nM throughout.
`Cc1[nH]nc2c1-c1cc(F)c(NC(=O)[C@@H](NC(=O)c3ccnn3CC3CC3)C(C3CC3)C3CC3)cc1COCC2` [compound 59]: the IC50 on Human IL-17A and at Human IL-17AF was 100 to 500 nM throughout.
`CCc1nocc1C(=O)N[C@H](C(=O)Nc1cc2c(cn1)-c1c(n[nH]c1C)CCOC2)C(C1CC1)C1CC1` [compound 240]: the IC50 on Human IL-17A and at Human IL-17AF was 100 to 500 nM in each case.
With `Cc1[nH]nc2c1-c1cnc(NC(=O)[C@@H](NC(=O)c3ccnn3C(C)C)C(C3CC3)C3CC3)cc1CN(CC(C)(F)F)C(=O)C2` [compound 193], the IC50 on Human IL-17A and at Human IL-17AF was at most 100 nM throughout.
Regarding `Cc1[nH]nc2c1-c1cc(F)c(NC(=O)[C@@H](NC(=O)c3ccnn3C(C)C)C(C3CC3)C3CC3)cc1CN(C1CCC1)C(=O)C2` [compound 170], the IC50 at Human IL-17A and at Human IL-17AF was at most 100 nM throughout.
For `Cc1[nH]nc2c1-c1cc(F)c(NC(=O)[C@@H](NC(=O)c3ccnn3C(C)C)C(C3CC3)C3CC3)cc1COCC2` [compound 15], the IC50 at Human IL-17A and at Human IL-17AF was at most 100 nM each time.
In the case of `CSCCn1nccc1C(=O)N[C@H](C(=O)Nc1cc2c(cc1F)-c1c(n[nH]c1C)CCOC2)C(C1CC1)C1CC1` [compound 61], the IC50 on Human IL-17A is 100 to 500 nM; on Human IL-17AF, at most 100 nM.
For `Cc1[nH]nc2c1-c1cc(F)c(NC(=O)[C@@H](NC(=O)c3ccnn3CCCC(F)(F)F)C(C3CC3)C3CC3)cc1COCC2` [compound 84] the same measures were at most 100 nM and 100 to 500 nM.
For `Cc1[nH]nc2c1-c1cc(F)c(NC(=O)[C@@H](NC(=O)c3ccnn3CCC(F)F)C(C3CC3)C3CC3)cc1COCC2` [compound 65] the same measures were 100 to 500 nM and at most 100 nM.
With `CCOCCn1nccc1C(=O)N[C@H](C(=O)Nc1cc2c(cc1F)-c1c(n[nH]c1C)CCOC2)C(C1CC1)C1CC1` [compound 100], the IC50 is 100 to 500 nM at Human IL-17A and at most 100 nM on Human IL-17AF.
On to `Cc1[nH]nc2c1-c1ccc(NC(=O)[C@@H](NC(=O)c3ccnn3C(C)C)C(C3CC3)C3CC3)cc1CNC(=O)C2` [compound 27], for which the IC50 on Human IL-17A and on Human IL-17AF was 100 to 500 nM throughout.
Consider `Cc1[nH]nc2c1-c1cc(F)c(NC(=O)[C@@H](NC(=O)/C(F)=C\C3CC3)C(C3CC3)C3CC3)cc1COCC2` [compound 230], for which the values for the IC50 at Human IL-17A and on Human IL-17AF were at most 100 nM and 100 to 500 nM, respectively.
Turning to `[2H]C([2H])([2H])C([2H])(n1nccc1C(=O)N[C@H](C(=O)Nc1cc2c(cn1)-c1c(n[nH]c1C)CCOC2)C(C1CC1)C1CC1)C([2H])([2H])[2H]` [compound 54], the IC50 at Human IL-17A and at Human IL-17AF was at most 100 nM in each case.
With `Cc1[nH]nc2c1-c1cnc(NC(=O)[C@@H](NC(=O)c3conc3C3CC3)C(C3CC3)C3CC3)cc1COCC2` [compound 241], the IC50 on Human IL-17A and at Human IL-17AF was 100 to 500 nM each time.
With `Cc1[nH]nc2c1-c1cc(F)c(NC(=O)[C@@H](NC(=O)c3ccnn3C(C)C)C3CCCCC3)cc1COCC2` [compound 48], the IC50 at Human IL-17A and at Human IL-17AF was 100 to 500 nM each time.
With `Cc1[nH]nc2c1-c1cnc(NC(=O)[C@@H](NC(=O)c3ccnn3C(C)C)C(C3CC3)C3CC3)cc1CN(C1CC1)C(=O)C2` [compound 191], the IC50 at Human IL-17A and on Human IL-17AF was at most 100 nM each time.
For `Cc1[nH]nc2c1-c1cc(F)c(NC(=O)[C@@H](NC(=O)c3ccnn3CC(C)(F)F)C(C3CC3)C3CC3)cc1COCC2` [compound 87], the IC50 at Human IL-17A and at Human IL-17AF was 100 to 500 nM each time.
On to `CCCn1nccc1C(=O)N[C@H](C(=O)Nc1cc2c(cc1F)-c1c(n[nH]c1C)CCOC2)C(C1CC1)C1CC1` [compound 62], for which the IC50 at Human IL-17A was 100 to 500 nM; on Human IL-17AF, at most 100 nM.
Regarding `Cc1[nH]nc2c1-c1cc(F)c(NC(=O)[C@@H](NC(=O)c3ccnn3CCOC(C)(C)C)C(C3CC3)C3CC3)cc1COCC2` [compound 113], the IC50 on Human IL-17A and at Human IL-17AF was 100 to 500 nM in each case.
With `[2H]C([2H])([2H])C([2H])(n1nccc1C(=O)N[C@H](C(=O)Nc1ccc2c(c1)COCCc1n[nH]c(C)c1-2)C(C1CC1)C1CC1)C([2H])([2H])[2H]` [compound 52], the IC50 at Human IL-17A was at most 100 nM; on Human IL-17AF, 100 to 500 nM.
With `Cc1[nH]nc2c1-c1cc(F)c(NC(=O)[C@@H](NC(=O)c3ccnn3C[C@@H]3C[C@H]3F)C(C3CC3)C3CC3)cc1COCC2` [compound 101], the IC50 on Human IL-17A and at Human IL-17AF was at most 100 nM throughout.
Take `Cc1[nH]nc2c1-c1cnc(NC(=O)[C@@H](NC(=O)/C(F)=C\C(C)C)C(C3CC3)C3CC3)cc1COCC2` [compound 238]: the values for the IC50 at Human IL-17A and at Human IL-17AF were at most 100 nM and 100 to 500 nM, respectively.
With `CCn1nccc1C(=O)N[C@H](C(=O)Nc1cc2c(cn1)-c1c(n[nH]c1C)CCN(C1CC1)C2)C(C1CC1)C1CC1` [compound 217], the IC50 on Human IL-17A and at Human IL-17AF was at most 100 nM in each case.
In the case of `Cc1[nH]nc2c1-c1cnc(NC(=O)[C@@H](NC(=O)c3ccnn3C(C)CF)C(C3CC3)C3CC3)cc1COCC2` (single isomer, unassigned) [compound 189a], the IC50 is at most 100 nM at Human IL-17A and 100 to 500 nM on Human IL-17AF.
Regarding `Cc1[nH]nc2c1-c1cc(F)c(NC(=O)[C@@H](NC(=O)c3ccnn3C)C(C3CC3)C3CC3)cc1COCC2` [compound 17], the IC50 on Human IL-17A and on Human IL-17AF was 100 to 500 nM each time.
Take `Cc1[nH]nc2c1-c1cc(F)c(NC(=O)[C@@H](NC(=O)c3ccnn3C(C)CF)C(C3CC3)C3CC3)cc1COCC2` (single isomer, unassigned) [compound 42a]: the IC50 at Human IL-17A and at Human IL-17AF was at most 100 nM throughout.
As to `Cc1[nH]nc2c1-c1cnc(NC(=O)[C@@H](NC(=O)c3ccnn3C(C)C)C(C3CC3)C3CC3)cc1CN(C1CCC1)CC2` [compound 201], the results for the IC50 on Human IL-17A and at Human IL-17AF were at most 100 nM and 100 to 500 nM, respectively.
On to `Cc1[nH]nc2c1-c1cnc(NC(=O)[C@@H](NC(=O)c3ccnn3C(C)C)C(C3CC3)C3CC3)cc1CN(Cc1ccccc1)C(=O)C2` [compound 182], for which the IC50 at Human IL-17A and at Human IL-17AF was 100 to 500 nM in each case.
In the case of `Cc1[nH]nc2c1-c1cnc(NC(=O)[C@@H](NC(=O)c3ccnn3C(C)CF)C(C3CC3)C3CC3)cc1COCC2` (single isomer, unassigned) [compound 189b], the IC50 on Human IL-17A and at Human IL-17AF was 100 to 500 nM in each case.
As to `Cc1[nH]nc2c1-c1cc(F)c(NC(=O)[C@@H](NC(=O)c3ccnn3C(C)C3CC3)C(C3CC3)C3CC3)cc1COCC2` (single isomer, unassigned) [compound 41b], the IC50 on Human IL-17A and at Human IL-17AF was at most 100 nM throughout.
Regarding `COCC(COC)n1nccc1C(=O)N[C@H](C(=O)Nc1cc2c(cc1F)-c1c(n[nH]c1C)CCOC2)C(C1CC1)C1CC1` [compound 99], the IC50 on Human IL-17A and at Human IL-17AF was 100 to 500 nM in each case.
`Cc1[nH]nc2c1-c1cc(F)c(NC(=O)[C@@H](NC(=O)c3ccnn3CCOC3CC3)C(C3CC3)C3CC3)cc1COCC2` [compound 102]: the IC50 at Human IL-17A is at most 100 nM; on Human IL-17AF it was 100 to 500 nM.
On to `CCn1nccc1C(=O)N[C@H](C(=O)Nc1ccc2c(c1)CN(C)C(=O)Cc1n[nH]c(C)c1-2)C(C1CC1)C1CC1` [compound 23], for which the IC50 on Human IL-17A and at Human IL-17AF was at most 100 nM each time.
On to `Cc1[nH]nc2c1-c1cc(F)c(NC(=O)[C@@H](NC(=O)c3ccnn3CCC(F)(F)F)C(C3CC3)C3CC3)cc1COCC2` [compound 88], for which the IC50 at Human IL-17A is at most 100 nM; on Human IL-17AF, 100 to 500 nM.
For `Cc1[nH]nc2c1-c1cnc(NC(=O)[C@@H](NC(=O)c3conc3C(C)C)C(C3CC3)C3CC3)cc1COCC2` [compound 234], the IC50 on Human IL-17A and at Human IL-17AF was 100 to 500 nM each time.

Values taken from patent publication US20260258050A1, “IMMUNOMODULATOR” (HITGEN INC., priority 2023, published 2026).
